Reference: the NIST ThermoML archive (doi:10.1016/j.jct.2015.07.020)
± gives the expanded uncertainty stated by the source.

Tests used:
[1] = 101.33 kPa, Liquid, Vibrating tube method
[2] = refractive index (Na D-line) (dimensionless); conditions: 101.33 kPa, Liquid, Standard Abbe refractometry

With `CCc1ccccc1` [ethylbenzene] the mass density ([1]; 298.15 K) was 862.51 ± 0.3 kg/m3 and the refractive index ([2]; 298.15 K) was 1.493 ± 0.0005.
`CC(C)c1ccccc1` [isopropylbenzene] gave a mass density ([1]; 293.15 K) of 863.82 ± 0.3 kg/m3 and a refractive index ([2]; 293.15 K) of 1.4912 ± 0.0005.
`O` [water] gave a refractive index ([2]; 298.15 K) of 1.3324 ± 0.0005.
